{"source": "patent US9492499B2", "about": "“Peptides having anti-inflammatory properties” (Riptide Bioscience, Inc., priority 2014, dated 2016)", "key": {"[1]": {"test": "Tumor growth, MCF-7 non-metastatic breast cancer model in athymic nude mice", "assay_type": "in vivo, mouse", "description": "The polypeptides of the invention were also tested for their effect on tumor growth in a mouse model of non-metastatic breast cancer. MCF-7 human non-metastatic breast cancer cells were cultured at 37° C., 5% CO2 in normal growth media. Cells were harvested at 80% to 90% confluence. Immune compromised athymic nude mice (J:NU) were divided into 2 groups (9 animals per group). All mice were injected with ˜4.5×10^6 MCF-7 cells which had been stained with VIVO Tracker 680 and suspended in 200 μl of PBS/Matrigel mixture. Cells were injected subcutaneously on the dorsal surface of treated animals using a 22 gauge needle fitted with a 500 μl syringe.\nAnimals were designated vehicle and peptide treated. The peptide treated animals were treated with the RP-397 polypeptide (SEQ ID NO: 194). Freshly prepared RP-397 peptide was dissolved in sterile saline at a concentration of 100 μM and was used to treat the animals in the peptide group. Vehicle treated animals were injected with saline buffer alone. All treatments were injected into the tumor mass two times weekly for 5 weeks using a 27½ gauge needle fitted with a 1 ml syringe. Animal weights and tumor volumes were measured 3 times weekly and the fluorescence labeling was followed by VIVO Tracker 680 and IVIS Imaging."}, "NF-kB": {"tested_on": "NF-kB", "test": "NF-kB activity in 3T3-L1 preadipocyte Nfkb-RE/GFP reporter cells", "assay_type": "cell-based", "details": "0.01 μM peptide, lipopolysaccharide 20 ng/ml, GFP fluorescence", "description": "NF-kB activity was monitored using the a 3T3-L1 preadipocyte cell line stably transformed with a Nfkb-RE/GFP construct, as described in Shen et al. (2013), “Adipocyte reporter assays: Application for identification of anti-inflammatory and antioxidant properties of mangosteen xanthones,” Mol. Nutr. Food Res. 00:1-9, the entire contents of which are incorporated herein by reference. NF-kB expressing adipocyte reporter cells were plated in DMEM in wells of a 24-well plate, at a seeding density of 5×10^4. On the second and third days post-plating, test peptides were individually added to the wells to a final concentration of 0.01 μM. The test peptides included RP-398 (SEQ ID NO: 155), and RP-185 (SEQ ID NO: 123). On day 4 post-plating, lipopolysaccharide was added to the medium to a final concentration of 20 ng/ml. Finally, on day 5 post-plating, the cells were harvested and a fluorescence assay performed to detect GFP expression levels."}, "PD-1": {"tested_on": "PD-1", "test": "PD-1 staining of tumors in transgenic p53/KRAS mice", "assay_type": "in vivo, mouse", "details": "10 mg/kg daily subcu for one week, vs vehicle", "description": "(§1) In one experiment, tumors in transgenic p53/KRAS mice were allowed to grow to approximately […] in volume, and the animals were then treated daily subcu for one week with either vehicle only, or 10 mg/kg RP-182, following which the animals were sacrificed and the tumors resected, formalin-fixed, and stained with antibodies to PD-1 (FIG. 19), PD-L1 and PD-L2 (FIG. 20)."}, "[2]": {"tested_on": "human triple-negative breast cancer cells (MDA-MB-231)", "test": "Tumor volume, MDA-MB-231 triple-negative breast cancer in nude mice, combination with Gemcitabine", "assay_type": "in vivo, mouse", "details": "Gemcitabine+RP-182 cohort, from day 32", "description": "To test this theory, cohorts of immunocompromised (“nude”) mice were injected with ˜5×10^6 human triple-negative breast cancer cells (MDA-MB-231) under the upper left teat. Following this administration, one cohort received only vehicle; two of the cohorts received the chemotherapeutic agent Gemcitabine, at a q4d dose of 40 mg/kg of body weight. One of these cohorts also received RP-182 (SEQ ID NO: 121) at a daily dose of 5 mg/kg body weight; and a fourth cohort received only RP-182 at a daily dose of 5 mg/kg body weight. Beginning on day 32 of the study, in the Gemcitabine+RP-182 cohort, concentrations of RP-182 were increased to 20 mg/kg body weight. Tumor volume was assessed at various time points following initial cell administration (FIG. 21). After 50 days, the mice were sacrificed."}, "PD-L1": {"tested_on": "PD-L1", "test": "PD-L1 staining of tumors in transgenic p53/KRAS mice", "assay_type": "in vivo, mouse", "details": "10 mg/kg daily subcu for one week, vs vehicle", "description": "as §1"}, "M1-polarized macrophages": {"tested_on": "M1-polarized macrophages", "test": "Viable cell count of M1-polarized bone marrow macrophages", "assay_type": "cell-based, mouse", "details": "100 nM, 72 hours", "description": "(§2) Primary bone marrow cells were collected from male C57BL/6J (The Jackson Laboratory, Bar Harbor, Me.). Mouse bone marrow macrophages were differentiated in vitro from the primary bone marrow cells by culturing in Dulbecco's minimal essential medium (DMEM) with 10% FBS and 30 ng/ml murine M-CSF (colony stimulating factor) for 6 days. At day 7, macrophages were plated into 12-well plates and cultured in DMEM (10% FBS) with (i) IL-4 peptide (20 ng/mL), (ii) INF-γ (10 ng/mL), or (iii) neither IL-4 nor INF-γ for 24 hours. After 24 hours, the media was replaced with pure DMEM and the cells were cultured for an additional 48 hours. The resulting macrophages were (i) M2-polarized, (ii) M1-polarized, or (iii) undifferentiated, respectively.\n(§3) A macrophage sample containing approximately 70,000 […] macrophages per ml was incubated for 72 hours with 100 nM RP-182 (SEQ ID NO: 121). […] Thus, the RP-182 had little effect on the viability of M1 macrophages."}, "M2-polarized macrophages": {"tested_on": "M2-polarized macrophages", "test": "Viable cell count of M2-polarized bone marrow macrophages", "assay_type": "cell-based, mouse", "details": "100 nM, 72 hours", "description": "as §2, §3"}, "[3]": {"tested_on": "undifferentiated macrophages", "test": "Viable cell count of undifferentiated bone marrow macrophages", "assay_type": "cell-based, mouse", "details": "100 nM, 72 hours; sample approximately 70,000 per ml", "description": "as §2, §3"}, "PD-L2": {"tested_on": "PD-L2", "test": "PD-L2 staining of tumors in transgenic p53/KRAS mice", "assay_type": "in vivo, mouse", "details": "10 mg/kg daily subcu for one week, vs vehicle", "description": "as §1"}}, "note": "“Also recorded” adds a separate entry of the source. No end group written: not given here.", "data": [{"sequence": "FAKKFAKKF [RP-397, FAKKFAKKF]", "values": [{"measurement": "Body Weight After", "setting": "[1]; after treatment", "value": 30.1, "unit": "g"}, {"measurement": "Body Weight Before", "setting": "[1]; before treatment", "value": 25.1, "unit": "g"}]}, {"sequence": "FAKKFAKKFK [RP-398]", "values": [{"measurement": "NF-kB expression reduced relative to control cells", "setting": "NF-kB", "value": "approximately 58%"}]}, {"sequence": "FFKKFFKKFK [RP-185]", "values": [{"measurement": "NF-kB expression reduced relative to control cells", "setting": "NF-kB", "value": "approximately 58%"}]}, {"sequence": "KFRKAFKRFF [RP-182]", "values": [{"measurement": "PD-1 expression in tumor", "setting": "PD-1", "value": "significantly downregulated; also recorded: reduced"}, {"measurement": "increase in tumor volume after RP-182 raised to 20 mg/kg", "setting": "[2]", "value": "essentially halted"}, {"measurement": "PD-L1 expression in tumor", "setting": "PD-L1", "value": "significantly downregulated; also recorded: reduced"}, {"measurement": "viable cell count, M1-polarized macrophages", "setting": "M1-polarized macrophages", "value": "68,000 cells per ml"}, {"measurement": "viable cell count, M2-polarized macrophages", "setting": "M2-polarized macrophages", "value": "20,000 cells per ml"}, {"measurement": "viable cell count, undifferentiated macrophages", "setting": "[3]", "value": "68,000 cells per ml"}, {"measurement": "PD-L2 expression in tumor", "setting": "PD-L2", "value": "significantly downregulated; also recorded: reduced"}]}]}
